pIC50: −log10 of the molar value.
These compounds were tested against JNK3 (Homo sapiens, UniProt P53779) (assay: JNK3 SPA assay (phosphorylation of GST-c-Jun)). Settings: GST-c-Jun substrate, [γ-33P] ATP, 30 minutes at room temperature.
Format: biochemical
Method: JNK1, JNK2, JNK3-SPA Assay
• 1. Compound is dissolved in DMSO to a convenient concentration and this is diluted in 10% DMSO to a five times concentrate of the desired starting concentration (frequently 1:100). • 2. 10 μl of 500 mM EDTA is added to alternative wells of the Opti-plate row, which will receive kinase reaction plus DMSO. This creates the negative control. • 3. For the JNK2 and JNK3 assay, compounds are prepared in six 2-fold dilutions with water and each concentration is tested in duplicate. For the JNK1 assay compounds are prepared in four 5-fold dilutions with water which are tested in triplicate. Controls are treated identically. • 4. 20 μl per well of each compound concentration is transferred to an Opti-plate, in duplicate. • 5. 30 μl (JNK2/3 SPA) or 50 μl (JNK1 SPA) of substrate solution (25 mM HEPES pH 7.5, 10 mM magnesium acetate with 3.33 µM ATP (JNK2/3) or 2 µM ATP (JNK1), approximately 7.5 kBq [γ-^33P] ATP, GST-c-Jun, in water) is added to each well. • 6. 50 μl (JNK2/3 SPA) or 30 μl (JNK1 SPA) of kinase solution (JNK in 25 mM HEPES pH 7.5, 10 mM Mg Acetate) is added to each well.
• 7. The plate is incubated for 30 minutes at room temperature. • 8. 100 μl of bead/stop solution is added to each well (5 mg/ml glutathione-PVT-SPA beads, 40 mM ATP in PBS). • 9. Plates are sealed and incubated for 30 minutes at room temperature, centrifuged for 10 minutes at 2500 g and counted. • 10. The IC50 values are calculated as the concentration of the compound being tested at which the phosphorylation of c-Jun is decreased to 50% of the control value.

Chain of JNK3 (P53779 whole entry): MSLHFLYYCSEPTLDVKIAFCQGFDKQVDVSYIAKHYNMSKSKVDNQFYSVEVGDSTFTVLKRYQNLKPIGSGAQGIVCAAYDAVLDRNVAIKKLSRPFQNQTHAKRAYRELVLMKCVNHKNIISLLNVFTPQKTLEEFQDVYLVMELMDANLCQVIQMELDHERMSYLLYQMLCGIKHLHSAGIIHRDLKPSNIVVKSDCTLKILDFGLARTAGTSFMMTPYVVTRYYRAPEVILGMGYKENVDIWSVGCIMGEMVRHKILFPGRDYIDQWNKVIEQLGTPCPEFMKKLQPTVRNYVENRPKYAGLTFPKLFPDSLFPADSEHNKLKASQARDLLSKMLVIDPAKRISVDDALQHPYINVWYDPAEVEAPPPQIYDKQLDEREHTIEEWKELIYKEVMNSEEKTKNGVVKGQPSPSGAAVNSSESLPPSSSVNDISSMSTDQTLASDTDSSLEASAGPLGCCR

`Cn1cc(-c2c[nH]c3ncc(OCC4CCCCC4)cc23)cn1` and `Cn1cc(-c2c[nH]c3ncc(OCC4CC4)cc23)cn1` cannot be ordered by pIC50: > 6.30 for the first, > 6.30 for the second.

`CC(C)(C)OC(=O)Nc1cnc2[nH]cc(-c3cn[nH]c3)c2c1` and `Oc1cnc2[nH]cc(-c3cn[nH]c3)c2c1` cannot be ordered by pIC50: > 6.00 for the first, > 5.70 for the second.

`CCCCCc1cnc2[nH]cc(-c3csc(C(=O)N4CCCCC4)n3)c2c1` and `CCCCCc1cnc2[nH]cc(-c3csc(C(=O)N4CCOCC4)n3)c2c1` cannot be ordered by pIC50: > 6.70 for the first, > 6.30 for the second.

`COc1cnc2[nH]cc(-c3cn[nH]c3)c2c1` and `Nc1cnc2[nH]cc(-c3cn[nH]c3)c2c1` cannot be ordered by pIC50: > 6.00 for the first, > 6.30 for the second.

`Cn1cc(-c2c[nH]c3ncc(Cc4ccccc4)cc23)cn1` and `Cn1cc(-c2c[nH]c3ncc(OCc4ccccc4)cc23)cn1` cannot be ordered by pIC50: > 6.70 for the first, > 6.30 for the second.

`CC(C)CCCc1cnc2[nH]cc(-c3cnn(C)c3)c2c1` and `CC(C)Cc1cnc2[nH]cc(-c3cnn(C)c3)c2c1` cannot be ordered by pIC50: > 6.70 for the first, > 7.00 for the second.

`[O-][S+](c1ccccc1)c1cnc2[nH]cc(-c3cn[nH]c3)c2c1` (centres unmarked) and `c1ccc(Sc2cnc3[nH]cc(-c4cn[nH]c4)c3c2)cc1` cannot be ordered by pIC50: > 6.30 for the first, > 6.70 for the second.

`Cn1cc(-c2c[nH]c3ncc(Cn4ccc5ccccc54)cc23)cn1` and `Cn1cc(-c2c[nH]c3ncc(CN4CCc5ccccc54)cc23)cn1` cannot be ordered by pIC50: > 6.30 for the first, > 6.30 for the second.

`CCCCOc1cnc2[nH]cc(-c3cnn(C)c3)c2c1` and `CCCCCOc1cnc2[nH]cc(-c3cnn(C)c3)c2c1` cannot be ordered by pIC50: > 6.30 for the first, > 6.70 for the second.

`Cn1cc(-c2c[nH]c3ncc(CC4CCC(O)CC4)cc23)cn1` (centres unmarked) and `Cn1cc(-c2c[nH]c3ncc(CC4CCC4)cc23)cn1` cannot be ordered by pIC50: > 7.00 for the first, > 7.00 for the second.

`Cn1cc(-c2c[nH]c3ncc(CC4CCC(N5CCOCC5)CC4)cc23)cn1` (centres unmarked) and `CN1CCN(C2CCC(Cc3cnc4[nH]cc(-c5cnn(C)c5)c4c3)CC2)CC1` (centres unmarked) cannot be ordered by pIC50: > 6.70 for the first, > 6.70 for the second.

`CN(C)c1cccc(Sc2cnc3[nH]cc(-c4cnn(C)c4)c3c2)c1` and `CN(C)c1ccc(Oc2cnc3[nH]cc(-c4cnn(C)c4)c3c2)cc1` cannot be ordered by pIC50: > 6.70 for the first, > 6.30 for the second.

`Cn1cc(-c2c[nH]c3ncc(CCC4CCCCC4)cc23)cn1` and `Cn1cc(-c2c[nH]c3ncc(CC4CCCCC4)cc23)cn1` cannot be ordered by pIC50: > 6.70 for the first, > 7.00 for the second.

`CC(C)Cc1cnc2[nH]cc(-c3cnn(CCN4CCOCC4)c3)c2c1` and `CC(C)Cc1cnc2[nH]cc(-c3csc(C(=O)N4CCOCC4)n3)c2c1` cannot be ordered by pIC50: > 6.30 for the first, > 6.70 for the second.

`CCCCCc1cnc2[nH]cc(-c3csc(C(=O)N4CCN(C)CC4)n3)c2c1` and `CC(C)Cc1cnc2[nH]cc(-c3csc(C(=O)N4CCN(C)CC4)n3)c2c1` cannot be ordered by pIC50: > 6.70 for the first, > 7.00 for the second.

`CCOc1cnc2[nH]cc(-c3cnn(C)c3)c2c1` and `CCCOc1cnc2[nH]cc(-c3cnn(C)c3)c2c1` cannot be ordered by pIC50: > 6.30 for the first, > 6.30 for the second.

`C#CCOc1cnc2[nH]cc(-c3cnn(C)c3)c2c1` and `C=CCOc1cnc2[nH]cc(-c3cnn(C)c3)c2c1` cannot be ordered by pIC50: > 6.30 for the first, > 6.30 for the second.

`Cc1ccc(Oc2cnc3[nH]cc(-c4cnn(C)c4)c3c2)cc1` and `Cn1cc(-c2c[nH]c3ncc(Oc4ccc(F)cc4)cc23)cn1` cannot be ordered by pIC50: > 6.30 for the first, > 6.00 for the second.

`Cc1ccccc1Oc1cnc2[nH]cc(-c3cnn(C)c3)c2c1` and `Cn1cc(-c2c[nH]c3ncc(Oc4ccccc4)cc23)cn1` cannot be ordered by pIC50: > 6.30 for the first, > 6.30 for the second.

`CC(C)Cc1cnc2[nH]cc(-c3csc(C(=O)N4CCCCC4)n3)c2c1` and `CC(C)Cc1cnc2[nH]cc(-c3csc(C4CCN(C)CC4)n3)c2c1` cannot be ordered by pIC50: > 6.70 for the first, > 6.00 for the second.

`Cn1cc(-c2c[nH]c3ncc(CC4CCC(=O)CC4)cc23)cn1` and `Cn1cc(-c2c[nH]c3ncc(CC4CCCC4)cc23)cn1` cannot be ordered by pIC50: > 6.70 for the first, > 7.00 for the second.

`CCCCCc1cnc2[nH]cc(-c3cnn(C)c3)c2c1` and `CCCCCCCc1cnc2[nH]cc(-c3cnn(C)c3)c2c1` cannot be ordered by pIC50: > 6.70 for the first, > 7.00 for the second.

`CCCc1cnc2[nH]cc(-c3cnn(C)c3)c2c1` and `Cn1cc(-c2c[nH]c3ncc(CCC(C)(C)C)cc23)cn1` cannot be ordered by pIC50: > 7.00 for the first, > 6.30 for the second.

`CCCCCCOc1cnc2[nH]cc(-c3cnn(C)c3)c2c1` and `COCCOc1cnc2[nH]cc(-c3cnn(C)c3)c2c1` cannot be ordered by pIC50: > 6.30 for the first, > 5.70 for the second.

`Cn1cc(-c2c[nH]c3ncc(OCCc4ccccc4)cc23)cn1` and `Cc1cccc(Oc2cnc3[nH]cc(-c4cnn(C)c4)c3c2)c1` cannot be ordered by pIC50: > 6.30 for the first, > 6.00 for the second.

`CCCCCCCCc1cnc2[nH]cc(-c3cnn(C)c3)c2c1` and `Cn1cc(-c2c[nH]c3ncc(CCCCO)cc23)cn1` cannot be ordered by pIC50: > 7.00 for the first, > 6.00 for the second.

`Cn1cc(-c2c[nH]c3ncc(CC4=CCCCC4)cc23)cn1` and `Cn1cc(-c2c[nH]c3ncc(CC4=CCCC4)cc23)cn1` cannot be ordered by pIC50: > 6.70 for the first, > 6.70 for the second.

`CCCCCc1cnc2[nH]cc(-c3csc(C(=O)N(C)C)n3)c2c1` and `CCCCS(=O)(=O)c1cnc2[nH]cc(-c3cn[nH]c3)c2c1` cannot be ordered by pIC50: > 6.30 for the first, > 6.00 for the second.

`Cn1cc(-c2c[nH]c3ncc(CC4CCN(Cc5ccccc5)CC4)cc23)cn1` and `Cn1cc(-c2c[nH]c3ncc(CN4CCCCC4)cc23)cn1` cannot be ordered by pIC50: > 6.70 for the first, > 6.00 for the second.

`O=C(O)c1ccccc1C(=O)Nc1cnc2[nH]cc(-c3cncs3)c2c1` and `O=C(Nc1cnc2[nH]cc(-c3ccoc3)c2c1)c1ccc(F)cc1` cannot be ordered by pIC50: > 6.70 for the first, > 6.30 for the second.

`CCCCSc1cnc2[nH]cc(-c3cnn(C)c3)c2c1` and `CCOC(=O)COc1cnc2[nH]cc(-c3cnn(C)c3)c2c1` cannot be ordered by pIC50: > 7.00 for the first, > 5.70 for the second.

`Cn1cc(-c2c[nH]c3ncc(OC4CCCC4)cc23)cn1` and `CN(C)C1CCC(Cc2cnc3[nH]cc(-c4cnn(C)c4)c3c2)CC1` (centres unmarked) cannot be ordered by pIC50: > 6.70 for the first, > 6.70 for the second.

For `CCCC[S+]([O-])c1cnc2[nH]cc(-c3cn[nH]c3)c2c1` (centres unmarked), the pIC50 was > 6.00.
